Assay results: patent US9849130B2 (KamTek, Inc., priority 2014, dated 2017)
In brackets after ≈: the same amount, converted by molar mass. Where two headings read alike, the source gives them in different places.

How the values were obtained:
[1] = test system: Clostridium difficile (CD) strains; test: microbe, parasite or virus in culture; format: cell-based; conditions: Clostridioides difficile; for MIC: BAA1805, CD strain BAA1805 (hyper-virulent strain BI/NAP1/027)
C. perfringens MH310 = test: microbe, parasite or virus in culture; format: cell-based; conditions: Clostridium perfringens, MH310, C. perfringens MH310
CD strains = test: In vitro activity of CFM + additional antimicrobial agent against CD (MIC alone/combination, FIC, ΣFIC); format: cell-based, Clostridium difficile; conditions: CFM + MET; for MIC: Clostridioides difficile, read-out: MIC alone
Escherichia coli strains = test: MIC by microdilution in Mueller-Hinton broth against Escherichia coli strains; format: cell-based; conditions: Escherichia coli, Mueller-Hinton broth, read-out: MIC
Enterococcus faecalis = test: MIC by microdilution in Mueller-Hinton broth against Enterococcus faecalis strains; format: cell-based; conditions: Enterococcus faecalis
Enterococci faecium = test: MIC by microdilution in Mueller-Hinton broth against Enterococci faecium strains; format: cell-based, Enterococcus faecium; conditions: Enterococcus faecium, Mueller-Hinton broth, read-out: MIC
[2] = test system: Staphylococcus aureus strains; test: MIC by microdilution in Mueller-Hinton broth against Staphylococcus aureus strains; format: cell-based; conditions: Staphylococcus aureus
Bacteroides Strains = test: MIC by microdilution in Brucella broth against Bacteroides strains; format: cell-based, Bacteroides spp.
Fusobacterium = test: MIC by microdilution in Brucella broth against Fusobacterium; format: cell-based, Fusobacterium spp.; conditions: read-out: MIC
Bifidobacterium strains = test: MIC by microdilution in BHI broth against Bifidobacterium strains; format: cell-based, Bifidobacterium spp.; conditions: BHI broth, read-out: MIC
[3] = test system: Lachnospiraceae and related bacterial strains; test: MIC against Lachnospiraceae and related bacterial strains; format: cell-based, Lachnospiraceae spp.; conditions: for MIC: broth microdilution, brucella broth, read-out: MIC
C. difficile VPI10463 = conditions: Clostridioides difficile, −fecal extract, C. difficile VPI10463
[4] = Test 14, CD strain BAA1805 (BI/NAP1/027)

Structure (SMILES): Cc1ncc([N+](=O)[O-])n1CCO [MET, metronidazole]
- MIC ([1]; BB): 8 µg/mL (≈ 46.7 µM)
- MIC ([1]; BHI): 1 µg/mL (≈ 5.84 µM)
- MIC50 ([1]; n = 37, read-out: MIC50): 1 µg/mL (≈ 5.84 µM)
- MIC90 ([1]; n = 37, read-out: MIC90): 4 µg/mL (≈ 23.4 µM)
- MIC (C. perfringens MH310; BB): 2 µg/mL (≈ 11.7 µM)
- MIC (C. perfringens MH310; BHI): 1 µg/mL (≈ 5.84 µM)
- MIC (CD strains; BAA1805, Test 14, CD strain BAA1805 (BI/NAP1/027)): 16 µg/mL
- MIC (CD strains; BAA1805, Test 15, CD strain BAA1805 (BI/NAP1/027)): 32 µg/mL
- MIC (CD strains; BAA1805, Test 17, CD strain BAA1805 (BI/NAP1/027)): 32 µg/mL
- MIC (CD strains; Test 8, CD strain NR32885): 2 µg/mL
- MIC (CD strains; Test 10, CD strain NR32885): 1 µg/mL
- MIC (CD strains; Test 12, CD strain NR32885): 1 µg/mL
- MIC (CD strains; Test 19, CD strain NR32888): 2 µg/mL
- MIC (CD strains; Test 21, CD strain NR32888): 2 µg/mL
- FIC (CD strains; Test 3, CD strain VPI 10463): 0.5
- MIC combination (CD strains; Test 3, CD strain VPI 10463): 0.062 µg/mL
- FIC (CD strains; Test 4, CD strain VPI 10463): 0.5
- MIC combination (CD strains; Test 4, CD strain VPI 10463): 0.062 µg/mL
- MIC combination (CD strains; Test 8, CD strain NR32885): 0.25 µg/mL
- FIC (CD strains; Test 10, CD strain NR32885): 0.25
- MIC combination (CD strains; Test 10, CD strain NR32885): 0.25 µg/mL
- FIC (CD strains; Test 12, CD strain NR32885): 0.25
- MIC combination (CD strains; Test 12, CD strain NR32885): 0.25 µg/mL
- FIC (CD strains; [4]): 0.015
- MIC combination (CD strains; [4]): 0.25 µg/mL
- MIC combination (CD strains; Test 15, CD strain BAA1805 (BI/NAP1/027)): 4 µg/mL
- MIC combination (CD strains; Test 17, CD strain BAA1805 (BI/NAP1/027)): 4 µg/mL
- FIC (CD strains; Test 19, CD strain NR32888): 0.062
- FIC (CD strains; Test 21, CD strain NR32888): 0.25
- MIC combination (CD strains; Test 21, CD strain NR32888): 0.5 µg/mL
- MIC (Escherichia coli strains; Escherichia coli strain NR 6): > 32 µg/mL
- MIC (Escherichia coli strains; Escherichia coli strain NR 8): > 32 µg/mL
- MIC (Escherichia coli strains; Escherichia coli strain NR 96): > 32 µg/mL
- MIC (Escherichia coli strains; Escherichia coli strain NR 104): > 32 µg/mL
- MIC (Escherichia coli strains; Escherichia coli strain NR 17626): > 32 µg/mL
- MIC (Escherichia coli strains; Escherichia coli strain NR 17627): > 32 µg/mL
- MIC (Escherichia coli strains; Escherichia coli strain NR 17633): > 32 µg/mL
- MIC (Escherichia coli strains; Escherichia coli strain NR 17647): > 32 µg/mL
- MIC (Escherichia coli strains; Escherichia coli strain NR 17650): > 32 µg/mL
- MIC (Escherichia coli strains; Escherichia coli strain NR 17661): > 32 µg/mL
- MIC (Enterococcus faecalis; E. faecalis NR 31884, read-out: MIC): > 32 µg/mL
- MIC (Enterococcus faecalis; E. faecalis NR 31885, read-out: MIC): > 32 µg/mL
- MIC (Enterococcus faecalis; E. faecalis NR 31886, read-out: MIC): > 32 µg/mL
- MIC (Enterococcus faecalis; E. faecalis NR 31887, read-out: MIC): > 32 µg/mL
- MIC (Enterococcus faecalis; E. faecalis NR 31888, read-out: MIC): > 32 µg/mL
- MIC (Enterococci faecium; E. faecium NR 31903): > 32 µg/mL
- MIC (Enterococci faecium; E. faecium NR 31909): > 32 µg/mL
- MIC (Enterococci faecium; E. faecium NR 31912): > 32 µg/mL
- MIC (Enterococci faecium; E. faecium NR 31915): > 32 µg/mL
- MIC (Enterococci faecium; E. faecium NR 31916): > 32 µg/mL
- MIC ([2]; Staphylococcus aureus strain NR 10129, read-out: MIC): > 32 µg/mL
- MIC ([2]; Staphylococcus aureus strain NR 10186, read-out: MIC): > 32 µg/mL
- MIC ([2]; Staphylococcus aureus strain NR 10187, read-out: MIC): > 32 µg/mL
- MIC ([2]; Staphylococcus aureus strain NR 10188, read-out: MIC): > 32 µg/mL
- MIC ([2]; Staphylococcus aureus strain NR 10189, read-out: MIC): > 32 µg/mL
- MIC ([2]; Staphylococcus aureus strain NR 10191, read-out: MIC): > 32 µg/mL
- MIC ([2]; Staphylococcus aureus strain NR 10192, read-out: MIC): > 32 µg/mL
- MIC ([2]; Staphylococcus aureus strain NR 10193, read-out: MIC): > 32 µg/mL
- MIC ([2]; Staphylococcus aureus strain NR 10194, read-out: MIC): > 32 µg/mL
- MIC ([2]; Staphylococcus aureus strain NR 10198, read-out: MIC): > 32 µg/mL
- MIC (Bacteroides Strains; B. caccae HM728, read-out: MIC): 0.25 µg/mL (≈ 1.46 µM)
- MIC (Bacteroides Strains; B. eggerthii HM210, read-out: MIC): 0.5 µg/mL (≈ 2.92 µM)
- MIC (Bacteroides Strains; B. fragilis HM709, read-out: MIC): 1 µg/mL (≈ 5.84 µM)
- MIC (Bacteroides Strains; B. fragilis HM710, read-out: MIC): 0.5 µg/mL (≈ 2.92 µM)
- MIC (Bacteroides Strains; B. fragilis HM714, read-out: MIC): 1 µg/mL (≈ 5.84 µM)
- MIC (Bacteroides Strains; B. ovatus HM222, read-out: MIC): 0.5 µg/mL (≈ 2.92 µM)
- MIC (Bacteroides Strains; B. stercoris HM1036, read-out: MIC): 0.25 µg/mL (≈ 1.46 µM)
- MIC (Bacteroides Strains; Bacteroides, B. spp. HM18): 4 µg/mL (≈ 23.4 µM)
- MIC (Bacteroides Strains; Bacteroides, B. spp. HM19): 1 µg/mL (≈ 5.84 µM)
- MIC (Bacteroides Strains; Bacteroides, B. spp. HM22): 0.5 µg/mL (≈ 2.92 µM)
- MIC (Bacteroides Strains; Bacteroides, B. spp. HM23, read-out: MIC): 0.25 µg/mL (≈ 1.46 µM)
- MIC (Bacteroides Strains; Bacteroides, B. spp. HM27): 0.5 µg/mL (≈ 2.92 µM)
- MIC (Bacteroides Strains; Bacteroides, B. spp. HM28): 2 µg/mL (≈ 11.7 µM)
- MIC (Bacteroides Strains; Bacteroides, B. spp. HM58): 2 µg/mL (≈ 11.7 µM)
- MIC (Fusobacterium; F. nucleatum HM-75, Brucella broth): 0.062 µg/mL (≈ 0.362 µM)
- MIC (Fusobacterium; F. nucleatum HM-993, Brucella broth): ≤ 0.031 µg/mL
- MIC (Fusobacterium; F. nucleatum HM-996, Brucella broth): 0.5 µg/mL (≈ 2.92 µM)
- MIC (Fusobacterium; F. nucleatum HM-997, Brucella broth): 0.25 µg/mL (≈ 1.46 µM)
- MIC (Fusobacterium; Fusobacterium, Fusobacterium sp. HM 57, Brucella broth): 0.5 µg/mL (≈ 2.92 µM)
- MIC (Fusobacterium; Fusobacterium, Fusobacterium spp. strains of Table 12 (all strains)): 0.031 to 0.5 µg/mL (≈ 0.181 to 2.92 µM)
- MIC (Bifidobacterium strains; Bifidobacterium adolescentis HM-633): > 32 µg/mL
- MIC (Bifidobacterium strains; Bifidobacterium breve HM-411): > 32 µg/mL
- MIC (Bifidobacterium strains; Bifidobacterium breve HM-412): > 32 µg/mL
- MIC (Bifidobacterium strains; Bifidobacterium breve HM-856): > 32 µg/mL
- MIC (Bifidobacterium strains; Bifidobacterium breve HM-1120): 0.5 µg/mL (≈ 2.92 µM)
- MIC (Bifidobacterium strains; Bifidobacterium longum HM-845): 2 µg/mL (≈ 11.7 µM)
- MIC (Bifidobacterium strains; Bifidobacterium longum HM-846): 2 µg/mL (≈ 11.7 µM)
- MIC (Bifidobacterium strains; Bifidobacterium longum HM-847): 1 µg/mL (≈ 5.84 µM)
- MIC (Bifidobacterium strains; Bifidobacterium, Bifidobacterium sp. HM-30): > 32 µg/mL
- MIC (Bifidobacterium strains; Bifidobacterium, Bifidobacterium sp. HM-868): 16 µg/mL (≈ 93.5 µM)
- MIC ([3]; Clostridiales bacterium, Clostridiales bacterium HM-84): 0.25 µg/mL (≈ 1.46 µM)
- MIC ([3]; Clostridiales bacterium, Clostridiales bacterium HM-182): ≤ 0.031 µg/mL
- MIC ([3]; Eubacterium sp. HM-178): 1 µg/mL (≈ 5.84 µM)
- MIC ([3]; Lachnospiraceae sp. HM-7): 0.25 µg/mL (≈ 1.46 µM)
- MIC ([3]; Lachnospiraceae sp. HM-150): 0.25 µg/mL (≈ 1.46 µM)
- MIC ([3]; Lachnospiraceae sp. HM-153): 0.062 µg/mL (≈ 0.362 µM)
- MIC ([3]; Lachnospiraceae sp. HM-157): 0.25 µg/mL (≈ 1.46 µM)
- MIC ([3]; Lachnospiraceae sp. HM-480): 0.5 µg/mL (≈ 2.92 µM)
- MIC ([3]; Lachnospiraceae sp. HM-558): 0.5 µg/mL (≈ 2.92 µM)
- MIC ([3]; Lachnospiraceae sp. HM-768): 0.5 µg/mL (≈ 2.92 µM)
- MIC ([3]; Lachnospiraceae sp. HM-868): 16 µg/mL (≈ 93.5 µM)
- MIC ([3]; Peptostreptococcaceae sp. HM-766): 0.5 µg/mL (≈ 2.92 µM)
- susceptibility of Lachnospiraceae and related organisms (in words) ([3]; most of the members of this family): susceptible
- MIC (C. difficile VPI10463; VPI10463, Expt. 1): 0.062 µg/mL (≈ 0.362 µM)
- MIC (C. difficile VPI10463; VPI10463, Expt. 2): 0.062 µg/mL (≈ 0.362 µM)
